The test system of one data set is Molm-13 cells. The data set is described as follows: Inhibition of proliferation of Molm-13 cells (CCK-8). It is filed as cell-based. To be noted: Homo sapiens, 72 h, mean±standard deviation of two independent tests. How it is done: [Worded in the source for another cell line; this cell line is reported under the same test.] (§1) 12000 g of compounds were centrifuged for 5 min, DMSO was added to make a 10^−2M stock solution, vortexed uniformly and sonicated for 10 min for standby application, and stored at −40° C. The compounds were diluted from the stock solution with saline to 10 times the concentration to be tested (concentration of DMSO in the system being no more than 0.5%) during the test.
(§2) The inhibitory effect of the compounds on the proliferation of MV4-11 cells was detected using a CCK-8 cell counting kit (Dojindo). The specific steps are as follows: the MV4-11 cells in logarithmic growth phase were seeded into a 96-well culture plate at a suitable density in 90 μL/well, cultured overnight, compounds at different concentrations were then added and acted on cells for 72 hr, and the solvent control group (negative control) was set up. The effect of the compounds on cell proliferation was detected using a CCK-8 cell counting kit (Dojindo) after the compounds had acted on the cells for 72 h. 10 μL of CCK-8 reagent was added to each well, same was placed in an incubator at 37° C. for 2-4 hours, and the reading from the full-wavelength microwell plate ELIASA SpectraMax 190 was performed with a wavelength of 450 nm.
(§3) IC50 value was calculated using a software included with ELIASA by the four-parameter regression.
(§4) IC50 for the inhibition of the compounds on each stain of cells was derived from two independent repeated tests, and the results are shown as the mean±standard deviation.

The next data set deals with MV4-11 cells. The data set is described as follows: Inhibition of proliferation of MV4-11 cells (CCK-8). As to conditions: Homo sapiens, 72 h, mean±standard deviation of two independent tests. Type of data set: cell-based. How it is done: as §1, §2, §3, §4
The nature of data set [1]: In vivo pharmacokinetic and bioavailability experiments of rats. More on the design: species or system SD rats. To be noted: for bioavailability: po, 25 mg/kg, read-out: F (oral bioavailability); for pharmacokinetic parameter, overall judgement: hydrochlorides, in words. Here is the method: Pharmacokinetic and bioavailability experiments of rats. SD rats were administered orally (25 mg/kg) and intravenously (2.5 to 5 mg/kg) at a single dose. Animal blood samples were taken at appropriate time points after administration, heparin was added as anticoagulant, and same were centrifuged at 8000 rpm/min for 6 minutes, the supernatant was then taken and stored at −20° C. for HPLC-MS analysis. The proteins in blood samples were precipitated with acetonitrile at 12000 rpm for 10 min, and the supernatant was used for HPCL-MS analysis. Data were fit using DAS2.0 to obtain compartmental model and non-compartmental model parameters, respectively. The oral bioavailability of each compound was calculated according to AUC data.

Data set [2] concerns AXL phosphorylation in MDA-MB-231 cells. In words: Western Blot, AXL kinase phosphorylation of MDA-MB-231 cells. Type of data set: cell-based. To be noted: FIG. 1. Here is the method:
Effect of quinolone derivatives on AXL kinase phosphorylation of MDA-MB-231 and 4T1 cells A conventional Western Blot was used, which includes four steps: sample preparation; electrophoretic separation; membrane transfer of proteins; and immunological hybridization and developing (protein detection).
1. MDA-MB-231 cells were seeded into a 6-well plate at an appropriate density, cultured for 24 hours until the cell confluency reached about 80%, drug-containing medium at corresponding concentration was added respectively, and co-cultured for 2-24 hours.
2. The medium was discarded at a predetermined time point, the well plate was washed twice with precooled PBS at 4° C. and the residual liquid was washed away.
3. 1×SDS sample buffer (CST recommended, 6-well plate, 300 μL) was added, scraping all the cells in the dish with a cell scraper, and transferring same to a 1.5 mL of EP tube (operated on ice).
4. The cell lysate was sonicated for 10-15 seconds to cut off DNA, so as to reduce sample viscosity.
5. Boil the sample for 5 min.
6. 12000 g of samples were centrifuged at 4° C. for 5 min, and the supernatant was taken and stored at −20° C. or −80° C. for western blot analysis.
1. Electrophoretic separation: 15-20 μL of 8%-12% SDS-PAGE polyacrylamide gel was loaded, with 90 v electrophoresis for the upper gel, and 120 v electrophoresis for the lower gel.
2. Assembly and transferring of the sandwich: submerging the polyacrylamide gel in transfer buffer and equilibrated for 10 min. According to the size of polyacrylamide gel, PVDF membrane (Mili pore) and 6 pieces of filter paper were cut out and placed in transfer buffer and equilibrated for 10 min. The PVDF membrane needs to be immersed in methanol for 3-5 seconds. Placed in such sequence as sponge→3 layers of filter paper→gel→membrane→3 layers of filter paper→sponge. Ensure there are no bubbles.
3. Membrane transferring: the transfer tank was placed in an ice bath, and the sandwich was added. Ensure the gel facing the negative electrode, and the PVDF facing the positive electrode. 1× membrane transferring buffer was added and placed under the constant pressure, subjecting same to membrane transferring at 110 V for 0.5 to 2 h depending on the molecular weight of the protein to be tested.
4. Blocking: the PVDF membrane was removed after the membrane transferring, blocked with blocking solution (1×TBS, containing 0.5% Tween-20 and 5% skim milk powder), and shaked slowly for 2 h on a horizontal shaker.
5. Incubation of the primary antibody: after blocking, diluting the primary antibody (antibody AXL, phosphor-AXL, AKT, phosphor-AKT, GAPDH, etc.) at 1: 200-1:1000. The PVDF membrane and the antibody were incubated overnight in a wet box at 4° C. to allow sufficient binding of the antibody to the protein of interest.
6. […]
For orientation: In western blotting, separated proteins are transferred to a membrane and probed.

[3] abbreviates: Sprague-Dawley, rat, plasma, SD rats, Po, 25 mg/kg single dose.
Where [4] appears, read: Sprague-Dawley, rat, plasma, SD rats, Po, 25 mg/kg single dose, read-out: Cmax.
[5] abbreviates: Sprague-Dawley, rat, plasma, SD rats, iv, 5 mg/kg single dose.
[6] abbreviates: Sprague-Dawley, rat, plasma, SD rats, iv, 5 mg/kg single dose, read-out: Cmax.
Setting [7] is: SD rats, Po, 25 mg/kg single dose.
[8] abbreviates: SD rats, iv, 2.5 mg/kg single dose.

Read-outs that look alike come from different tables or passages of the source.

On to `COc1cc2ncnc(Oc3ccc(NC(=O)c4cn5c6c(c(N7CCC(O)CC7)c(F)cc6c4=O)CCC5C)cc3F)c2cc1OC` (stereo not drawn) [TL4830031, N-(4-((6,7-dimethoxyquinazolin-4-yl)oxy)-3-fluorophenyl)-9-fluoro-8-(4-hydroxypiperidin-1-yl)-5-methyl-1-oxo-1,5,6,7-tetrahydropyrido[3,2,1-ij]quinoline-2-carboxamide], for which the IC50 (usually the concentration that inhibits the measured activity by half) was 239 ± 21.9 nM with Molm-13 cells and greater than 500 nM in the data set on MV4-11 cells. The bioavailability (in general, the share of a dose that reaches the circulation, judged against a reference dose that is usually intravenous) in data set [1] (Sprague-Dawley, rat, plasma) came to 12.1%. Also, the AUC(0-inf) (usually the area under the concentration-time curve extrapolated to infinity) in data set [1] (setting [3]) is 25900 ng·h/mL; in data set [1] (setting [5]) it was 20700 ng·h/mL. The values for the AUC(0-t) in data set [1] (setting [3]) and in data set [1] (setting [5]) were 24400 ng·h/mL and 20300 ng·h/mL, respectively. The half-life (usually the time in which the quantity being followed falls by half) was 5.68 h in data set [1] (setting [3]) and 4.26 h in data set [1] (setting [5]). The Cmax (in general, the highest concentration seen after dosing) in data set [1] (setting [4]) was determined as 2390 ng/mL; in data set [1] (setting [6]), 4360 ng/mL. Also, in data set [1] (setting [5]), the clearance – broadly, the volume of plasma or blood freed of the substance per unit of time – was 2 mL/min/kg.

As for `CCc1ccc2c(c1)c(=O)c(C(=O)Nc1ccc(Oc3ncnc4cc(OCCCN5CCOCC5)c(OC)cc34)c(F)c1)c(C)n2C` [GDL5000123, 6-ethyl-N-(3-fluoro-4-((6-methoxy-7-(3-morpholinopropoxy)quinazolin-4-yl)oxy)phenyl)-1,2-dimethyl-4-oxo-1,4-dihydroquinoline-3-carboxamide], the IC50 in the data set with Molm-13 cells came to 3.5 ± 3.2 nM. In addition, in the data set on MV4-11 cells, 51.7 ± 17.6 nM corresponded to half-maximal inhibition (IC50). Besides, in data set [1] (SD rats), the “pharmacokinetic parameter, overall judgement” value (“pharmacokinetic parameter” for short) was “appropriate pharmacokinetic parameter”. The bioavailability in data set [1] (Sprague-Dawley, rat, plasma) came to 23.5%. In data set [1] (setting [3]), the AUC(0-inf) stood at 118000 ng·h/mL; the AUC(0-t) (commonly exposure summed from dosing to a finite time, without extrapolation to infinity) worked out at 51500 ng·h/mL; the half-life was 26.7 h. In addition, the Cmax in data set [1] (setting [4]) stood at 3080 ng/mL. Also, in data set [1] (setting [5]), the AUC(0-inf) amounted to 47700 ng·h/mL, the AUC(0-t) was 43800 ng·h/mL, the clearance was 1.83 mL/min/kg and the half-life was 6.7 h. Further, the Cmax in data set [1] (setting [6]) turned out to be 6480 ng/mL.

For the molecule `CCc1ccc2c(c1)c(=O)c(C(=O)Nc1ccc(Oc3ncnc4[nH]cc(-c5ccccc5)c34)c(F)c1)c(C)n2C` [TL4800075, 6-ethyl-N-(3-fluoro-4-((5-phenyl-7H-pyrrolo[2,3-d]pyrimidin-4-yl)oxy)phenyl)-1,2-dimethyl-4-oxo-1,4-dihydroquinoline-3-carboxamide], in data set [2], the “phosphorylation of AXL” value is recorded as “significantly inhibit” and the “phosphorylation of downstream signaling protein AKT” value is given as “significantly inhibit”. In addition, in data set [1] (setting [7]), the “AUC(0-∞)” value was 505.71 ng·h/mL, the Cmax is 121.74 ng/mL and the T1/2 came to 3.72 h. For the same molecule, in data set [1] (setting [8]), the “AUC(0-∞)” value came out at 3029.64 ng·h/mL, the CL came out at 13.8 mL/min/kg, the peak concentration (Cmax) is 2910.13 ng/mL and the T1/2 was 0.87 h. In data set [1] (Sprague-Dawley, rat, plasma), the bioavailability worked out at 1.23%. Moreover, the AUC(0-t) in data set [1] (setting [3]) was found to be 371 ng·h/mL. The molecule also displayed an exposure AUC(0-t) in data set [1] (Sprague-Dawley, rat, plasma, SD rats, iv, 2.5 mg/kg single dose) of 3020 ng·h/mL.

`CCc1ccc2c(c1)c(=O)c(C(=O)Nc1ccc(Oc3ncnc4cc(OCCN(C)C)c(OC)cc34)c(F)c1)c(C)n2C` [GDL5000128, N-(4-(7-(2-(dimethylamino)ethoxy)-6-methoxyquinazolin-4-yloxy)-3-fluorophenyl)-6-ethyl-1,2-dimethyl-4-oxo-1,4-dihydroquinoline-3-carboxamide] displayed an IC50 with Molm-13 cells of 50.2 ± 9.9 nM. In addition, inhibition in the data set with MV4-11 cells was half-maximal at 57.3 ± 10.4 nM (IC50). Also, in data set [1] (SD rats), the “pharmacokinetic parameter” value is reported as “appropriate pharmacokinetic parameter”. Besides, the bioavailability in data set [1] (Sprague-Dawley, rat, plasma) was found to be 44.3%. In data set [1] (setting [3]), the area under the curve AUC(0-inf) is 25600 ng·h/mL, the AUC(0-t) came to 25100 ng·h/mL and the half-life is 4.59 h. The Cmax in data set [1] (setting [4]) came out at 4630 ng/mL. In addition, in data set [1] (setting [5]), the AUC(0-inf) is 11600 ng·h/mL, the AUC(0-t) was 11300 ng·h/mL, the clearance was 7.5 mL/min/kg and the half-life is 5.82 h. Besides, the Cmax in data set [1] (setting [6]) was determined as 16800 ng/mL.

Molecule `CCc1ccc2c(c1)c(=O)c(C(=O)Nc1ccc(Oc3ncnc4cc(OCCCN5CCN(C)CC5)c(OC)cc34)c(F)c1)c(C)n2C` [GDL5000138, 6-ethyl-N-(3-fluoro-4-(6-methoxy-7-(3-(4-methylpiperazin-1-yl)propoxy)quinazolin-4-yloxy)phenyl)-1,2-dimethyl-4-oxo-1,4-dihydroquinoline-3-carboxamide] yielded an IC50 with Molm-13 cells of 3.9 ± 2.9 nM. Moreover, the IC50 in the data set with MV4-11 cells was less than 2 nM. In data set [1] (SD rats), the “pharmacokinetic parameter” value is listed as “appropriate pharmacokinetic parameter”. Moreover, the bioavailability in data set [1] (Sprague-Dawley, rat, plasma) is 27.5%. In data set [1] (setting [3]), this molecule showed an AUC(0-inf) of 31300 ng·h/mL, an AUC(0-t) of 11300 ng·h/mL and a half-life of 34.8 h. For the same molecule, the Cmax in data set [1] (setting [4]) was 656 ng/mL. Also, in data set [1] (setting [5]), the AUC(0-inf) came to 8530 ng·h/mL, the AUC(0-t) is 8220 ng·h/mL, the clearance is 9.83 mL/min/kg and the half-life was 5.72 h. Also, the Cmax in data set [1] (setting [6]) is 3560 ng/mL.

For `CCc1ccc2c(c1)c(=O)c(C(=O)Nc1ccc(Oc3ncnc4cc(OC)c(OC)cc34)c(F)c1)c(C)n2C` [TL4800191, N-(4-(6,7-dimethoxyquinazolin-4-yloxy)-3-fluorophenyl)-6-ethyl-1,2-dimethyl-4-oxo-1,4-dihydroquinoline-3-carboxamide], in the data set on Molm-13 cells, the IC50 came out at 102 ± 10.9 nM. Further, in the data set on MV4-11 cells, the IC50 turned out to be 194 ± 104 nM. Besides, in data set [2], the “phosphorylation of AXL” value is “significantly inhibit” and the “phosphorylation of downstream signaling protein AKT” value is “significantly inhibit”. Further, the “F (oral bioavailability)” value in data set [1] (SD rats, Po 25 mg/kg vs iv 2.5 to 5 mg/kg, calculated according to AUC data) is given as 14.9%. For the same molecule, in data set [1] (setting [7]), the “AUC(0-∞)” value was determined as 31505 ng·h/mL, the CL was found to be 15 mL/min/kg, the Cmax worked out at 1967 ng/mL and the T1/2 turned out to be 10.2 h. The molecule further gave an AUC(0-t) in data set [1] (setting [3]) of 31300 ng·h/mL. In addition, in data set [1] (setting [5]), the AUC(0-inf) amounted to 42300 ng·h/mL, the AUC(0-t) amounted to 30500 ng·h/mL, the clearance was 1.67 mL/min/kg and the half-life was 25.2 h. Further, the Cmax in data set [1] (setting [6]) was 1170 ng/mL.

Values taken from patent US10683278B2 (JINAN UNIVERSITY, priority 2015, dated 2020).
